Data from PubChem BioAssay (NCI).
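Values below derive from 48-hour exposures of cells grown in 96-well plates, with endpoints linearly interpolated between the two concentrations bracketing the appropriate inhibition level. Abbreviation: GI50, concentration required for 50% inhibition of growth. TGI: total growth inhibition.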

Legend:
Test in all cases: NCI-60 cell line screen, 48 h
EKVX NSCLC = tested on: EKVX NSCLC
786-0 renal = tested on: 786-0 renal
HS 578T breast = tested on: HS 578T breast
SNB-19 CNS = tested on: SNB-19 CNS
HCC-2998 colon = tested on: HCC-2998 colon
MOLT-4 leukemia = tested on: MOLT-4 leukemia
SN12C renal = tested on: SN12C renal
MDA-MB-231 breast = tested on: MDA-MB-231 breast
U251 CNS = tested on: U251 CNS
UACC-257 melanoma = tested on: UACC-257 melanoma
K-562 leukemia = tested on: K-562 leukemia
MCF7 breast = tested on: MCF7 breast
NCI-H23 lung = tested on: NCI-H23 lung
PC-3 prostate = tested on: PC-3 prostate
CAKI-1 renal = tested on: CAKI-1 renal
OVCAR-4 ovarian = tested on: OVCAR-4 ovarian
HT29 colon = tested on: HT29 colon
SK-MEL-28 melanoma = tested on: SK-MEL-28 melanoma
SW-620 colon = tested on: SW-620 colon
NCI-H522 lung = tested on: NCI-H522 lung
SNB-75 CNS = tested on: SNB-75 CNS
NCI/ADR-RES ovarian = tested on: NCI/ADR-RES ovarian
SK-MEL-2 melanoma = tested on: SK-MEL-2 melanoma
SK-MEL-5 melanoma = tested on: SK-MEL-5 melanoma
ACHN renal = tested on: ACHN renal
OVCAR-8 ovarian = tested on: OVCAR-8 ovarian
UACC-62 melanoma = tested on: UACC-62 melanoma
NCI-H460 lung = tested on: NCI-H460 lung
HL-60(TB) leukemia = tested on: HL-60(TB) leukemia
LOX IMVI melanoma = tested on: LOX IMVI melanoma
OVCAR-3 ovarian = tested on: OVCAR-3 ovarian
MDA-MB-435 = tested on: MDA-MB-435
DU-145 prostate = tested on: DU-145 prostate
HOP-62 NSCLC = tested on: HOP-62 NSCLC
HCT-15 colon = tested on: HCT-15 colon
SF-268 CNS = tested on: SF-268 CNS
OVCAR-5 ovarian = tested on: OVCAR-5 ovarian
A498 renal = tested on: A498 renal
MALME-3M melanoma = tested on: MALME-3M melanoma
SF-295 CNS = tested on: SF-295 CNS
KM12 colon = tested on: KM12 colon
TK-10 renal = tested on: TK-10 renal
COLO 205 colon = tested on: COLO 205 colon
MDA-N = tested on: MDA-N
HCT-116 colon = tested on: HCT-116 colon
BT-549 breast = tested on: BT-549 breast
RXF 393 renal = tested on: RXF 393 renal
IGROV1 ovarian = tested on: IGROV1 ovarian
NCI-H226 lung = tested on: NCI-H226 lung
UO-31 renal = tested on: UO-31 renal
CCRF-CEM leukemia = tested on: CCRF-CEM leukemia
RPMI-8226 leukemia = tested on: RPMI-8226 leukemia
SR leukemia = tested on: SR leukemia
T-47D breast = tested on: T-47D breast
HOP-92 NSCLC = tested on: HOP-92 NSCLC
SF-539 CNS = tested on: SF-539 CNS
M14 melanoma = tested on: M14 melanoma
A549 NSCLC = tested on: A549 NSCLC
SK-OV-3 ovarian = tested on: SK-OV-3 ovarian

NC1=NC(=O)[C@H](Cc2c[nH]c3ccccc23)N1C(=O)OCc1ccccc1 was tested, and the TGI (EKVX NSCLC) was > 100 µM, the TGI (786-0 renal) was > 100 µM and the TGI (HS 578T breast) was > 100 µM. For the same compound, the TGI (SNB-19 CNS) was > 100 µM, the TGI (HCC-2998 colon) was > 100 µM and the TGI (MOLT-4 leukemia) was > 100 µM. For the same compound, the TGI (SN12C renal) was > 100 µM, the TGI (MDA-MB-231 breast) was > 100 µM and the TGI (U251 CNS) was > 100 µM. For the same compound, the TGI (UACC-257 melanoma) was > 100 µM, the TGI (K-562 leukemia) was > 100 µM and the TGI (MCF7 breast) was > 100 µM. The TGI (NCI-H23 lung) was > 100 µM, the TGI (PC-3 prostate) was > 100 µM and the TGI (CAKI-1 renal) was > 100 µM. For the same compound, the TGI (OVCAR-4 ovarian) was > 100 µM, the TGI (HT29 colon) was > 100 µM and the TGI (SK-MEL-28 melanoma) was > 100 µM. The TGI (SW-620 colon) was > 100 µM, the TGI (NCI-H522 lung) was > 100 µM and the TGI (SNB-75 CNS) was > 100 µM. The TGI (NCI/ADR-RES ovarian) was > 100 µM, the TGI (SK-MEL-2 melanoma) was > 100 µM and the TGI (SK-MEL-5 melanoma) was > 100 µM. The TGI (ACHN renal) was > 100 µM, the TGI (OVCAR-8 ovarian) was > 100 µM and the TGI (UACC-62 melanoma) was > 100 µM. For the same compound, the TGI (NCI-H460 lung) was > 100 µM, the TGI (HL-60(TB) leukemia) was > 100 µM and the TGI (LOX IMVI melanoma) was > 100 µM. The TGI (OVCAR-3 ovarian) was > 100 µM, the TGI (MDA-MB-435) was > 100 µM and the TGI (DU-145 prostate) was > 100 µM. The TGI (HOP-62 NSCLC) was > 100 µM, the TGI (HCT-15 colon) was > 100 µM and the TGI (SF-268 CNS) was > 100 µM. For the same compound, the TGI (OVCAR-5 ovarian) was > 100 µM, the TGI (A498 renal) was > 100 µM and the TGI (MALME-3M melanoma) was > 100 µM. For the same compound, the TGI (SF-295 CNS) was > 100 µM, the TGI (KM12 colon) was > 100 µM and the TGI (TK-10 renal) was > 100 µM. The TGI (COLO 205 colon) was > 100 µM, the TGI (MDA-N) was > 100 µM and the TGI (HCT-116 colon) was > 100 µM. The TGI (BT-549 breast) was > 100 µM, the TGI (RXF 393 renal) was > 100 µM and the TGI (IGROV1 ovarian) was > 100 µM. The TGI (NCI-H226 lung) was > 100 µM and the TGI (UO-31 renal) was > 100 µM.
In the case of CNC(=O)c1ccccc1Nc1cc(Nc2ccc(N3CCOCC3)cc2OC)ncc1C(F)(F)F, the GI50 (EKVX NSCLC) is reported as 0.341 µM, the TGI (EKVX NSCLC) is reported as 64.8 µM and the GI50 (786-0 renal) is reported as 4.12 µM. For the same compound, the TGI (786-0 renal) was 34.6 µM, the GI50 (HS 578T breast) was 13.5 µM and the TGI (HS 578T breast) was > 87.6 µM. For the same compound, the GI50 (SNB-19 CNS) was 15.6 µM, the TGI (SNB-19 CNS) was > 100 µM and the GI50 (CCRF-CEM leukemia) was 8.49 µM. It also gave a TGI (CCRF-CEM leukemia) of 97.8 µM, a GI50 (RPMI-8226 leukemia) of 3.61 µM and a TGI (RPMI-8226 leukemia) of 48 µM. It also gave a GI50 (HCC-2998 colon) of 1.68 µM, a TGI (HCC-2998 colon) of 62.4 µM and a GI50 (MOLT-4 leukemia) of 6.64 µM. The TGI (MOLT-4 leukemia) was > 86.8 µM, the GI50 (SN12C renal) was 12.2 µM and the TGI (SN12C renal) was > 81.5 µM. For the same compound, the GI50 (MDA-MB-231 breast) was 2.7 µM, the TGI (MDA-MB-231 breast) was 47.1 µM and the GI50 (U251 CNS) was 10.4 µM. For the same compound, the TGI (U251 CNS) was > 87.6 µM, the GI50 (UACC-257 melanoma) was 0.346 µM and the TGI (UACC-257 melanoma) was 63.7 µM. The GI50 (K-562 leukemia) was 5 µM, the TGI (K-562 leukemia) was > 100 µM and the GI50 (MCF7 breast) was 0.296 µM. The TGI (MCF7 breast) was 34.5 µM, the GI50 (NCI-H23 lung) was 0.757 µM and the TGI (NCI-H23 lung) was 60.7 µM. The GI50 (PC-3 prostate) was 18.6 µM, the TGI (PC-3 prostate) was > 100 µM and the GI50 (CAKI-1 renal) was 1.64 µM. For the same compound, the TGI (CAKI-1 renal) was > 54.6 µM, the GI50 (OVCAR-4 ovarian) was 3.24 µM and the TGI (OVCAR-4 ovarian) was > 100 µM. The GI50 (HT29 colon) was 0.333 µM, the TGI (HT29 colon) was 15.4 µM and the GI50 (SK-MEL-28 melanoma) was 1.85 µM. The TGI (SK-MEL-28 melanoma) was > 83.8 µM, the GI50 (SR leukemia) was 0.248 µM and the TGI (SR leukemia) was 12.4 µM. The GI50 (T-47D breast) was 14.5 µM, the TGI (T-47D breast) was 59.8 µM and the GI50 (SW-620 colon) was 1.92 µM. The TGI (SW-620 colon) was > 65.6 µM, the GI50 (NCI-H522 lung) was 7.67 µM and the TGI (NCI-H522 lung) was 37.6 µM. It also gave a GI50 (SNB-75 CNS) of 1.31 µM, a TGI (SNB-75 CNS) of 43.5 µM and a GI50 (NCI/ADR-RES ovarian) of 2.82 µM. For the same compound, the TGI (NCI/ADR-RES ovarian) was > 68.3 µM, the GI50 (SK-MEL-2 melanoma) was 3.82 µM and the TGI (SK-MEL-2 melanoma) was 24.9 µM. It also gave a GI50 (SK-MEL-5 melanoma) of 4.55 µM, a TGI (SK-MEL-5 melanoma) of 22.1 µM and a GI50 (ACHN renal) of 5.27 µM. For the same compound, the TGI (ACHN renal) was > 84.5 µM, the GI50 (OVCAR-8 ovarian) was 6.88 µM and the TGI (OVCAR-8 ovarian) was > 100 µM. For the same compound, the GI50 (UACC-62 melanoma) was 0.419 µM, the TGI (UACC-62 melanoma) was 20.4 µM and the GI50 (NCI-H460 lung) was 2.54 µM. For the same compound, the TGI (NCI-H460 lung) was 19.4 µM, the GI50 (HL-60(TB) leukemia) was 1 µM and the TGI (HL-60(TB) leukemia) was 24.8 µM. The GI50 (LOX IMVI melanoma) was 1.45 µM, the TGI (LOX IMVI melanoma) was 18.5 µM and the GI50 (OVCAR-3 ovarian) was 13.1 µM. The TGI (OVCAR-3 ovarian) was > 85.3 µM, the GI50 (HOP-92 NSCLC) was 0.011 µM and the TGI (HOP-92 NSCLC) was 0.172 µM. For the same compound, the GI50 (MDA-MB-435) was 0.815 µM, the TGI (MDA-MB-435) was > 94.3 µM and the GI50 (DU-145 prostate) was 3.4 µM. The TGI (DU-145 prostate) was > 81.5 µM, the GI50 (HOP-62 NSCLC) was 0.296 µM and the TGI (HOP-62 NSCLC) was 52.5 µM. The GI50 (HCT-15 colon) was 3.09 µM, the TGI (HCT-15 colon) was > 95.7 µM and the GI50 (SF-268 CNS) was 4.86 µM. The TGI (SF-268 CNS) was 80.9 µM, the GI50 (SF-539 CNS) was 6.37 µM and the TGI (SF-539 CNS) was 34 µM. The GI50 (OVCAR-5 ovarian) was 0.637 µM, the TGI (OVCAR-5 ovarian) was > 100 µM and the GI50 (A498 renal) was 2.29 µM. The TGI (A498 renal) was 10.5 µM, the GI50 (MALME-3M melanoma) was 0.264 µM and the TGI (MALME-3M melanoma) was 63.6 µM. The GI50 (SF-295 CNS) was 1.07 µM, the TGI (SF-295 CNS) was 41.8 µM and the GI50 (KM12 colon) was 1.18 µM. It also gave a TGI (KM12 colon) of 11.6 µM, a GI50 (M14 melanoma) of 0.739 µM and a TGI (M14 melanoma) of 32.2 µM. It also gave a GI50 (TK-10 renal) of 1.23 µM, a TGI (TK-10 renal) of 40.2 µM and a GI50 (COLO 205 colon) of 0.161 µM. The TGI (COLO 205 colon) was 1.37 µM, the GI50 (HCT-116 colon) was 1.94 µM and the TGI (HCT-116 colon) was 19.1 µM. It also gave a GI50 (A549 NSCLC) of 1.7 µM, a TGI (A549 NSCLC) of 22.7 µM and a GI50 (BT-549 breast) of 8.14 µM. For the same compound, the TGI (BT-549 breast) was 41.8 µM, the GI50 (RXF 393 renal) was 3.08 µM and the TGI (RXF 393 renal) was 20 µM. For the same compound, the GI50 (IGROV1 ovarian) was 2.28 µM, the TGI (IGROV1 ovarian) was > 100 µM and the GI50 (NCI-H226 lung) was 2.42 µM. The TGI (NCI-H226 lung) was 55.6 µM, the GI50 (SK-OV-3 ovarian) was 5.44 µM and the TGI (SK-OV-3 ovarian) was 57.6 µM. The GI50 (UO-31 renal) was 1.91 µM and the TGI (UO-31 renal) was 17.8 µM.
